Here are results for 7 substances from paper PMC7114193 (Antiviral Research, 2012).

One experiment has as its target rhACE2 (Homo sapiens, UniProt Q9BYF1). Format: binding.
Experiment [1] concerns spike protein and ACE2 interaction. Particulars: cited from earlier work.

Chain of rhACE2 (Q9BYF1 18-740): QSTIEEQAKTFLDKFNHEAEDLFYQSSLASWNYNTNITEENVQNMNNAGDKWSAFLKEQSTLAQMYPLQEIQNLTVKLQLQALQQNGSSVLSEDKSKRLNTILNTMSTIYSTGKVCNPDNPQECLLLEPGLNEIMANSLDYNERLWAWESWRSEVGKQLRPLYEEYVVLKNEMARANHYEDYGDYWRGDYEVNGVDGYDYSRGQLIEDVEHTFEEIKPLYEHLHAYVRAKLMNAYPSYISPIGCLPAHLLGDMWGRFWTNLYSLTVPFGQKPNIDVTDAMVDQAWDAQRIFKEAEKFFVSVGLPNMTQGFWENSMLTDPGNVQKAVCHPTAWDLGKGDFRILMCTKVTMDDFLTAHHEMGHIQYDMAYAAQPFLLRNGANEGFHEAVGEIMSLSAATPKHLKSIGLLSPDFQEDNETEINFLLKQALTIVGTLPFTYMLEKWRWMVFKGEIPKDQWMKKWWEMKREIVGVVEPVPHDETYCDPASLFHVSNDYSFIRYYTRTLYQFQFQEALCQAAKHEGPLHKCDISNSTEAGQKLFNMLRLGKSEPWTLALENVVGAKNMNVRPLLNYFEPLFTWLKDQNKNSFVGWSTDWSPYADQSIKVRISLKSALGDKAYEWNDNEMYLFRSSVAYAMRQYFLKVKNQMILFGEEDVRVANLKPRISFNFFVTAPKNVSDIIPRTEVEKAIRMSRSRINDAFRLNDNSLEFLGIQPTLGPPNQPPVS

With ALNSYW [RBD-14a], on rhACE2, the SPR response was determined as 5 RU.
Consider FYTTTGIGYQPY [SP-8], for which the “inhibition of spike protein and ACE2 interaction (in words)” value in experiment [1] is “inhibitory activity”.
Consider IGYQPY [RBD-15c], for which the “SPR binding to ACE2 (in words)” value on rhACE2 was “no interaction observable”.
The substance NYNYKY [RBD-11a] had an SPR response signal on rhACE2 of 5 RU.
On to SYWPLN [RBD-14b], for which, at rhACE2, the “SPR binding to ACE2 (in words)” value was “only weak interaction” and the SPR response came out at 7 RU.
With YDYRYL, the “SPR binding to ACE2 (in words)” value on rhACE2 is recorded as “No binding was observed”.
With YKYDYL, the “SPR binding to ACE2 (in words)” value on rhACE2 is listed as “No binding was observed”.
